Experiments:
Assay type in all cases: in vivo
Plutella xylostella = assay: B.6 Diamond Back Moth, cabbage leaf disc dip test; conditions: foliar, 3rd instar larvae, 72 hours after treatment, read-out: mortality in comparison with untreated controls
Protocol: The active compound was dissolved at the desired concentration in a mixture of 1:1 (vol:vol) distilled water:acetone. Surfactant (Kinetic) was added at a rate of 0.01% (vol/vol). The test solution was prepared at the day of use. Cabbage leaf discs (60 mm in diameter) were dipped in test solution and air-dried. Treated leaves were placed in petri dishes lined with moistened filter paper and inoculated with ten 3rd instar larvae. Mortality was recorded 72 hours after treatment. Feeding damages were also recorded using a scale of 0-100%.

Anthonomus grandis = assay: B.1 Boll weevil (Anthonomus grandis), 96-well microtiter plate diet test; conditions: 120 h, egg and larval mortality, 5 days, read-out: mortality in comparison with untreated controls
Protocol: For evaluating control of boll weevil, the test unit consisted of 96-well-microtiter plates containing an insect diet and 5-10 A. grandis eggs.
The compounds were formulated using a solution containing 75% v/v water and 25% v/v DMSO. Different concentrations of formulated compounds were sprayed onto the insect diet at 5 μl, using a custom-built micro atomizer, at two replications.
After application, microtiter plates were incubated at about 25±1° C. and about 75±5% relative humidity for 5 days. Egg and larval mortality were then visually assessed.

Dichromothrips corbetti = assay: B.7 Orchid Thrips, floral-immersion test; conditions: adult thrips, 72 hours after treatment, read-out: mortality in comparison with untreated controls
Protocol: Dichromothrips corbetti adults used for bioassay were obtained from a colony maintained continuously under laboratory conditions. For testing purposes, the test compound was diluted in a 1:1 mixture of acetone:water (vol:vol), plus Kinetic at a rate of 0.01% v/v.
Thrips potency of each compound was evaluated by using a floral-immersion technique. Each orchid petal was dipped into treatment solution and allowed to dry in Petri dishes. Treated petals were placed into individual re-sealable plastic along with about 20 adult thrips. All test arenas were held under dark condition and a temperature of about 28° C. for duration of the assay. The percent mortality was recorded 72 hours after treatment.

Heliothis virescens = assay: B.4 Tobacco Budworm, microtiter plate diet test; conditions: 120 h, egg and larval mortality, 5 days, read-out: mortality in comparison with untreated controls
Protocol: For evaluating control of Tobacco Budworm, the test unit consisted of 96-well-microtiter plates containing an insect diet and 15-25 H. virescens eggs. The compounds were formulated using a solution containing 75% v/v water and 25% v/v DMSO. Different concentrations of formulated compounds were sprayed onto the insect diet at 10 μl, using a custom-built micro atomizer, at two replications. After application, microtiter plates were incubated at about 28±1° C. and about 80±5% relative humidity for 5 days. Egg and larval mortality was then visually assessed.

Myzus persicae = assay: B.3 Green Peach Aphid (mixed life stages), systemic artificial diet test; conditions: 72 h, treated aphid diet, 3 days, read-out: mortality in comparison with untreated controls
Description: For evaluating control of Green Peach Aphid through systemic means the test unit consisted of 96-well-microtiter plates containing liquid artificial diet under an artificial membrane. The compounds were formulated using a solution containing 75% v/v water and 25% v/v DMSO. Different concentrations of formulated compounds were pipetted into the aphid diet, using a custom-built pipette, at two replications. After application, 5-8 adult aphids were placed on the artificial membrane inside the microtiter plate wells. The aphids were then allowed to suck on the treated aphid diet and incubated at about 23±1° C. and about 50±5% relative humidity for 3 days. Aphid mortality and fecundity was then visually assessed.

Bemisia argentifolii = assay: B.12 Silverleaf Whitefly (adults), cotton plant spray test; conditions: 72 h, 3 days after treatment, read-out: mortality in comparison with untreated controls
Protocol: The active compounds were formulated by a Tecan liquid handler in 100% cyclohexanone as a 10,000-ppm solution supplied in tubes. The 10,000-ppm solution was serially diluted in 100% cyclohexanone to make interim solutions. These served as stock solutions for which final dilutions were made by the Tecan in 50% acetone:50% water (v/v) into 5 or 10 ml glass vials. A nonionic surfactant (Kinetic®) was included in the solution at a volume of 0.01% (v/v). The vials were then inserted into an automated electrostatic sprayer equipped with an atomizing nozzle for application to plants/insects. Cotton plants at the cotyledon stage (one plant per pot) were sprayed by an automated electrostatic plant sprayer equipped with an atomizing spray nozzle. The plants were dried in the sprayer fume hood and then removed from the sprayer. Each pot was placed into a plastic cup and about 10 to 12 whitefly adults (approximately 3-5 days old) were introduced. The insects were collected using an aspirator and a nontoxic Tygon® tubing connected to a barrier pipette tip. The tip, containing the collected insects, was then gently inserted into the soil containing the treated plant, allowing insects to crawl out of the tip to reach the foliage for feeding. Cups were covered with a reusable screened lid. Test plants were maintained in a growth room at about 25° C. and about 20-40% relative humidity for 3 days, avoiding direct exposure to fluorescent light (14:10 light:dark photoperiod) to prevent trapping of heat inside the cup. Mortality was assessed 3 days after treatment, compared to untreated control plants.

Spodoptera eridania = assay: B.11 Southern Armyworm 2nd instar larvae, lima bean foliar spray test; conditions: 96 h, 4 days after treatment, read-out: mortality in comparison with untreated controls
Protocol: The active compounds were formulated by a Tecan liquid handler in 100% cyclohexanone as a 10′000 ppm solution supplied in tubes. The 10′000 ppm solution was serially diluted in 100% cyclohexanone to make interim solutions. These served as stock solutions for which final dilutions were made by the Tecan in 50% acetone:50% water (v/v) into 10 or 20 ml glass vials. A nonionic surfactant (Kinetic®) was included in the solution at a volume of 0.01% (v/v). The vials were then inserted into an automated electrostatic sprayer equipped with an atomizing nozzle for application to plants/insects. Lima bean plants (variety Sieva) were grown 2 plants to a pot and selected for treatment at the 1st true leaf stage. Test solutions were sprayed onto the foliage by an automated electrostatic plant sprayer equipped with an atomizing spray nozzle. The plants were dried in the sprayer fume hood and then removed from the sprayer. Each pot was placed into perforated plastic bags with a zip closure. Ten to 11 armyworm larvae were placed into the bag and the bags zipped closed. Test plants were maintained in a growth room at about 25° C. and about 20-40% relative humidity for 4 days, avoiding direct exposure to fluorescent light (14:10 light:dark photo-period) to prevent trapping of heat inside the bags. Mortality and reduced feeding were assessed 4 days after treatment, compared to untreated control plants.

Aedes aegypti = assay: whole plant or invertebrate; conditions: 48 h, larval mortality, 2 days, read-out: mortality in comparison with untreated controls
Protocol: For evaluating control of Yellow Fever Mosquito, the test unit consisted of 96-well-microtiter plates containing 200 μl of tap water per well and 5-15 freshly hatched A. aegypti larvae. The active compounds were formulated using a solution containing 75% (v/v) water and 25% (v/v) DMSO. Different concentrations of formulated compounds or mixtures were sprayed onto the insect diet at 2.5 μl, using a custom-built micro atomizer, at two replications.
After application, microtiter plates were incubated at 28±1° C., 80±5% RH for 2 days. Larval mortality was then visually assessed.

CN(C1=NOC(c2cc(Cl)cc(Cl)c2)(C(F)(F)F)C1)c1ccc(Cl)c(C(=O)NC2(c3cnn(C)c3)CC2)c1 (stereo not shown) [I-125, 2-chloro-5-[[5-(3,5-dichlorophenyl)-5-(trifluoromethyl)-4H-isoxazol-3-yl]-methyl-amino]-N-[1-(1-methylpyrazol-4-yl)cyclopropyl]benzamide]
≥ 75%: mortality at 300 ppm (Plutella xylostella) | mortality at 2500 ppm (Anthonomus grandis) | mortality at 300 ppm (Dichromothrips corbetti) | mortality at 2500 ppm (Heliothis virescens) | mortality at 2500 ppm (Myzus persicae)

O=C(Nc1cnccc1F)c1cc(NC2=NOC(c3cc(Cl)c(F)c(Cl)c3)(C(F)(F)F)C2)ccc1Cl (stereo not shown) [I-62, 2-chloro-5-[[5-(3,5-dichloro-4-fluoro-phenyl)-5-(trifluoromethyl)-4H-isoxazol-3-yl]amino]-N-(4-fluoro-3-pyridyl)benzamide]
≥ 75%: mortality at 300 ppm (Plutella xylostella) | mortality at 300 ppm (Dichromothrips corbetti)

N#CC1(NC(=O)c2cc(S(=O)(=O)C3=NOC(c4cc(Cl)cc(Cl)c4)(C(F)(F)F)C3)ccc2Cl)CC1 (stereo not shown) [II-3, 2-chloro-N-(1-cyanocyclopropyl)-5-[[5-(3,5-dichlorophenyl)-5-(trifluoromethyl)-4H-isoxazol-3-yl]sulfonyl]benzamide]
≥ 75%: mortality at 300 ppm (Plutella xylostella)

CCOC(=O)N(C1=NOC(c2cc(Cl)cc(Cl)c2)(C(F)(F)F)C1)c1ccc(Cl)c(C(=O)N(C(=O)OCC)C2(C#N)CC2)c1 (stereo not shown) [I-100, ethyl N-[4-chloro-3-[(1-cyanocyclopropyl)-ethoxycarbonyl-carbamoyl]-phenyl]-N-[5-(3,5-dichlorophenyl)-5-(trifluoromethyl)-4H-isoxazol-3-yl]carbamate]
≥ 75%: mortality at 300 ppm (Plutella xylostella) | mortality at 300 ppm (Dichromothrips corbetti) | mortality at 300 ppm (Bemisia argentifolii) | mortality at 300 ppm (Spodoptera eridania)

CC(C)(C#N)NC(=O)c1cc(NC2=NOC(c3cc(Cl)c(F)c(Cl)c3)(C(F)(F)F)C2)ccc1Cl (stereo not shown) [I-58, 2-chloro-N-(1-cyano-1-methyl-ethyl)-5-[[5-(3,5-dichloro-4-fluoro-phenyl)-5-(trifluoromethyl)-4H-isoxazol-3-yl]amino]benzamide]
≥ 75%: mortality at 300 ppm (Plutella xylostella) | mortality at 300 ppm (Dichromothrips corbetti) | mortality at 300 ppm (Spodoptera eridania)

O=C(Nc1ccc(F)cc1F)c1cc(NC2=NOC(c3cc(Cl)cc(Cl)c3)(C(F)(F)Cl)C2)ccc1Cl (stereo not shown) [I-131, 2-chloro-5-[[5-[chloro(difluoro)methyl]-5-(3,5-dichlorophenyl)-4H-isoxazol-3-yl]amino]-N-(2,4-difluorophenyl)benzamide]
≥ 75%: mortality at 300 ppm (Plutella xylostella) | mortality at 2500 ppm (Aedes aegypti) | mortality at 2500 ppm (Anthonomus grandis) | mortality at 300 ppm (Dichromothrips corbetti) | mortality at 300 ppm (Spodoptera eridania) | mortality at 2500 ppm (Heliothis virescens) | mortality at 2500 ppm (Myzus persicae)

O=C(N[C@@H]1CON(CC(F)(F)F)C1=O)c1cc(NC2=NOC(c3cc(Cl)c(F)c(Cl)c3)(C(F)(F)F)C2)ccc1Cl (stereo partly drawn) [I-114, 2-chloro-5-[[5-(3,5-dichloro-4-fluoro-phenyl)-5-(trifluoromethyl)-4H-isoxazol-3-yl]amino]-N-[(4R)-3-oxo-2-(2,2,2-trifluoroethyl)isoxazolidin-4-yl]benzamide]
≥ 75%: mortality at 300 ppm (Plutella xylostella) | mortality at 300 ppm (Dichromothrips corbetti) | mortality at 300 ppm (Bemisia argentifolii) | mortality at 300 ppm (Spodoptera eridania)

O=C(NC1(c2ccnnc2)CC1)c1cc(NC2=NOC(c3cc(Cl)cc(Cl)c3)(C(F)(F)F)C2)ccc1Cl (stereo not shown) [I-162, 2-chloro-5-[[5-(3,5-dichlorophenyl)-5-(trifluoromethyl)-4H-isoxazol-3-yl]amino]-N-(1-pyridazin-4-ylcyclopropyl)benzamide]
≥ 75%: mortality at 300 ppm (Plutella xylostella) | mortality at 2500 ppm (Aedes aegypti) | mortality at 2500 ppm (Anthonomus grandis) | mortality at 300 ppm (Bemisia argentifolii) | mortality at 300 ppm (Spodoptera eridania)

O=C(Nc1ccc(F)cc1F)c1cccc(NC2=NOC(c3cc(Cl)cc(Cl)c3)(C(F)(F)F)C2)c1F (stereo not shown) [I-48, 3-[[5-(3,5-dichlorophenyl)-5-(trifluoromethyl)-4H-isoxazol-3-yl]amino]-N-(2,4-difluoro-phenyl)-2-fluoro-benzamide]
≥ 75%: mortality at 300 ppm (Plutella xylostella) | mortality at 300 ppm (Dichromothrips corbetti) | mortality at 300 ppm (Spodoptera eridania)

O=C(NC1CN(S(=O)(=O)C(F)F)C1)c1cc(NC2=NOC(c3cc(Cl)c(F)c(Cl)c3)(C(F)(F)F)C2)ccc1Cl (stereo not shown) [I-41, 2-chloro-5-[[5-(3,5-dichloro-4-fluoro-phenyl)-5-(trifluoromethyl)-4H-isoxazol-3-yl]amino]-N-[1-(difluoromethylsulfonyl)azetidin-3-yl]benzamide]
≥ 75%: mortality at 300 ppm (Plutella xylostella) | mortality at 300 ppm (Dichromothrips corbetti) | mortality at 300 ppm (Spodoptera eridania)

N#CC1(NC(=O)c2c(F)ccc(NC3=NOC(c4cc(Cl)cc(Cl)c4)(C(F)(F)F)C3)c2F)CC1 (stereo not shown) [I-30, N-(1-cyanocyclopropyl)-3-[[5-(3,5-dichlorophenyl)-5-(trifluoromethyl)-4H-isoxazol-3-yl]amino]-2,6-difluoro-benzamide]
≥ 75%: mortality at 300 ppm (Plutella xylostella) | mortality at 2500 ppm (Anthonomus grandis) | mortality at 300 ppm (Dichromothrips corbetti) | mortality at 300 ppm (Spodoptera eridania)

O=C(Nc1ccc(F)c(NC(=O)C(F)F)c1F)c1cc(NC2=NOC(c3cc(Cl)cc(Cl)c3)(C(F)(F)F)C2)ccc1Cl (stereo not shown) [I-6, 2-chloro-5-[[5-(3,5-dichlorophenyl)-5-(trifluoromethyl)-4H-isoxazol-3-yl]amino]-N-[3-[(2,2-difluoroacetyl)amino]-2,4-difluoro-phenyl]benzamide]
≥ 75%: mortality at 300 ppm (Plutella xylostella) | mortality at 300 ppm (Dichromothrips corbetti)

Reference: US12595239B2, “Substituted isoxazoline derivatives” (BASF SE, priority 2021, dated 2026)
